What all share (assay): biochemical
Experiment [1] deals with T1, W190/N192 FPR (Homo sapiens, UniProt P21462, R190W). Type of experiment: binding. The note with it: Ki (nM ± SEM) for binding of peptides to W190/N192 FPR.
Experiment [2] deals with R190/K192 FPR (Homo sapiens, UniProt P21462, N192K). Type of experiment: binding.
The target of experiment [3] is R190/N192 FPR (Homo sapiens, UniProt P21462). Format: binding.
The target of experiment [4] is T1, W190/N192 FPR. Format: biochemical.

Residues, ends and D or L forms follow the SMILES beside them. Where only a bound is given, the exact number is not on record here.

Experimental findings from PMC2075610 (Biochimica et Biophysica Acta. Molecular Basis of Disease, 2006) are described below.

Broadly, the Ki is a measure of affinity in units of concentration, obtained from inhibition or displacement. The term EC50 denotes the midpoint of the concentration-response curve. High values mean weaker potency, low ones greater potency.

Chain of R190/N192 FPR (P21462 whole entry, looked up): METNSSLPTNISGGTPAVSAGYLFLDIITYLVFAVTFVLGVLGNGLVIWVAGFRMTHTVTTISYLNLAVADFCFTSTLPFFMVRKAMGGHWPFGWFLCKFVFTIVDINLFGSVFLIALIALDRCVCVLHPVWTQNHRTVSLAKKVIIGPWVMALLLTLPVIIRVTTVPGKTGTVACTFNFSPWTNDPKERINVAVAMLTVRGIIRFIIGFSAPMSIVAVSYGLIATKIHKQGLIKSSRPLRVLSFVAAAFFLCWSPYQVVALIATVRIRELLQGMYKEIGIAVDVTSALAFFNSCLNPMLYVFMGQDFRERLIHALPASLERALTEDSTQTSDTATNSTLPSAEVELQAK
Chain of R190/K192 FPR (P21462 whole entry N192K, looked up): as the sequence (P21462 whole entry, looked up) above, with N192K counted along it
T1 sequence (P21462 whole entry R190W, looked up): as the sequence (P21462 whole entry, looked up) above, with R190W counted along it

Regarding `CC(C)C[C@H](NC(=O)[C@@H](N)CCCCN)C(=O)N[C@@H](CC(N)=O)C(=O)N[C@@H](CO)C(=O)N[C@@H](Cc1c[nH]c2ccccc12)C(=O)N[C@@H](CC(=O)O)C(=O)N[C@H](C(=O)N[C@@H](Cc1ccccc1)C(=O)NCC(=O)N[C@@H](CC(N)=O)C(=O)N[C@@H](Cc1c[nH]c2ccccc12)C(=O)N[C@@H](Cc1ccccc1)C(=O)O)C(C)C`, the results for the Ki in experiment [1], in experiment [2] and in experiment [3] were 4700 ± 290 nM, 9500 nM and 15000 nM, respectively.

As to `CC(C)C[C@H](NC(=O)[C@H](CO)NC(=O)[C@H](C)NC(=O)[C@H](Cc1c[nH]c2ccccc12)NC(=O)[C@H](CCCCN)NC(=O)[C@H](CC(=O)O)NC(=O)[C@H](CC(C)C)NC(=O)[C@@H](N)CCC(=O)O)C(=O)N[C@@H](Cc1c[nH]c2ccccc12)C(=O)N[C@@H](CC(N)=O)C(=O)N[C@@H](Cc1c[nH]c2ccccc12)C(=O)N[C@@H](Cc1ccccc1)C(=O)O` (H-ELDKWASLWNWF-OH), the inhibition constant (Ki) in experiment [1] is 1050 ± 100 nM; in experiment [2], 940 ± 150 nM; in experiment [3], 1200 ± 100 nM.

As for `CC[C@H](C)[C@H](NC(=O)[C@H](CC(N)=O)NC(=O)[C@H](CC(=O)O)NC(=O)[C@@H](NC(=O)[C@H](CC(C)C)NC(=O)[C@@H](NC(=O)[C@H](CCC(N)=O)NC(=O)[C@H](CC(C)C)NC(=O)[C@H](CCCCN)NC(=O)[C@H](CCC(N)=O)NC(=O)[C@@H](N)C(C)C)[C@@H](C)O)[C@@H](C)CC)C(=O)N[C@@H](CC(N)=O)C(=O)N[C@@H](CO)C(=O)N[C@H](C(=O)N[C@@H](CC(C)C)C(=O)N[C@H](C(=O)N[C@@H](CC(=O)O)C(=O)N[C@@H](CC(C)C)C(=O)N[C@@H](CCCCN)C(=O)N[C@@H](Cc1c[nH]c2ccccc12)C(=O)N[C@@H](CC(C)C)C(=O)N[C@@H](CC(N)=O)C(=O)N[C@@H](CCCNC(=N)N)C(=O)N[C@H](C(=O)N[C@@H](CCC(=O)O)C(=O)N[C@H](C(=O)N[C@@H](Cc1ccc(O)cc1)C(=O)N[C@H](C(=O)N[C@@H](CCCCN)C(=O)N[C@@H](Cc1c[nH]c2ccccc12)C(=O)N1CCC[C@H]1C(=O)N[C@@H](Cc1c[nH]c2ccccc12)C(=O)N[C@@H](Cc1c[nH]c2ccccc12)C(=O)N[C@H](C(=O)N[C@@H](Cc1c[nH]c2ccccc12)C(=O)N[C@@H](CC(C)C)C(=O)O)C(C)C)[C@@H](C)CC)[C@@H](C)O)C(C)C)C(C)C)[C@@H](C)O` [Coronavirus 229E 36 mer], the results for the inhibition constant Ki in experiment [1], in experiment [2] and in experiment [3] were 1300 ± 60 nM, 6800 nM and 10000 nM, respectively.

As to `CC[C@H](C)[C@H](NC(=O)[C@H](C)NC(=O)[C@H](CCC(=O)O)NC(=O)[C@H](CCC(N)=O)NC(=O)[C@H](CC(C)C)NC(=O)[C@H](CCCNC(=N)N)NC(=O)[C@H](CC(N)=O)NC(=O)[C@@H](N)CCSC)C(=O)N[C@@H](CCCCN)C(=O)N[C@H](C(=O)N[C@@H](CC(C)C)C(=O)N[C@@H](CC(N)=O)C(=O)N[C@@H](CCC(N)=O)C(=O)N[C@@H](CO)C(=O)N[C@@H](Cc1ccc(O)cc1)C(=O)N[C@H](C(=O)N[C@@H](CC(N)=O)C(=O)N[C@@H](CC(C)C)C(=O)N[C@@H](CCCCN)C(=O)N[C@@H](CC(=O)O)C(=O)N[C@H](C(=O)NCC(=O)N[C@H](C(=O)N[C@@H](Cc1ccc(O)cc1)C(=O)N[C@@H](CCC(=O)O)C(=O)N[C@@H](Cc1ccc(O)cc1)C(=O)N[C@@H](Cc1ccc(O)cc1)C(=O)N[C@H](C(=O)N[C@@H](CCCCN)C(=O)N[C@@H](Cc1c[nH]c2ccccc12)C(=O)N1CCC[C@H]1C(=O)N[C@@H](Cc1c[nH]c2ccccc12)C(=O)N[C@@H](Cc1ccc(O)cc1)C(=O)N[C@H](C(=O)N[C@@H](Cc1c[nH]c2ccccc12)C(=O)N[C@@H](CC(C)C)C(=O)O)C(C)C)C(C)C)[C@@H](C)O)[C@@H](C)CC)[C@@H](C)CC)C(C)C` [Coronavirus OC43 36mer], the Ki in experiment [1] is 460 ± 50 nM; in experiment [2], 740 ± 80 nM; in experiment [3], 850 ± 80 nM.

As to `CC[C@H](C)[C@H](NC(=O)[C@H](Cc1ccc(O)cc1)NC(=O)[C@@H](NC(=O)[C@@H](N)CCC(=O)O)[C@@H](C)O)C(=O)N[C@@H](CCCCN)C(=O)N[C@@H](Cc1c[nH]c2ccccc12)C(=O)N1CCC[C@H]1C(=O)O` [ETYIKWP] (H-ETYIKWP-OH), the inhibition constant (Ki) in experiment [1], in experiment [2] and in experiment [3] was > 260000 nM each time. Besides, the “EC50 for inhibition of stimulation of GTPγS binding by formyl-Nle–Leu–Phe” value in experiment [4] is given as “had no effect”.

Regarding `CC[C@H](C)[C@H](NC(=O)[C@H](CC(N)=O)NC(=O)[C@H](C)NC(=O)[C@H](CCC(=O)O)NC(=O)[C@H](CC(C)C)NC(=O)[C@@H](N)Cc1ccc(O)cc1)C(=O)N[C@@H](CO)C(=O)N[C@@H](CCC(=O)O)C(=O)N[C@@H](CC(C)C)C(=O)N[C@@H](CC(C)C)C(=O)N[C@@H](CCC(=O)O)C(=O)N[C@@H](CCC(N)=O)C(=O)N[C@@H](C)C(=O)N[C@@H](CCC(N)=O)C(=O)N[C@H](C(=O)N[C@@H](CCC(N)=O)C(=O)N[C@@H](CCC(N)=O)C(=O)N[C@@H](CCC(=O)O)C(=O)N[C@@H](CCCCN)C(=O)N[C@@H](CC(N)=O)C(=O)N[C@@H](CCSC)C(=O)N[C@@H](Cc1ccc(O)cc1)C(=O)N[C@@H](CCC(=O)O)C(=O)N[C@@H](CC(C)C)C(=O)N[C@@H](CCC(N)=O)C(=O)N[C@@H](CCCCN)C(=O)N[C@@H](CC(C)C)C(=O)N[C@@H](CC(N)=O)C(=O)N[C@@H](CO)C(=O)N[C@@H](Cc1c[nH]c2ccccc12)C(=O)N[C@@H](CC(=O)O)C(=O)N[C@H](C(=O)N[C@@H](Cc1ccccc1)C(=O)NCC(=O)N[C@@H](CC(N)=O)C(=O)N[C@@H](Cc1c[nH]c2ccccc12)C(=O)N[C@@H](Cc1ccccc1)C(=O)O)C(C)C)[C@@H](C)CC` [HIV-2 37 mer], the results for the inhibitory constant (Ki) in experiment [1], in experiment [2] and in experiment [3] were 4000 ± 1000 nM, 10000 nM and 15700 nM, respectively.

In the case of `CSCC[C@H](NC(=O)[C@@H](N)CCSC)C(=O)N[C@@H](Cc1c[nH]c2ccccc12)C(=O)N[C@@H](CC(C)C)C(=O)N[C@@H](CC(C)C)C(=O)O` [MMWLL, reference compound] (H-MMWLL-OH), the results for the Ki in experiment [1], in experiment [2] and in experiment [3] were 840 ± 200 nM, 190 ± 30 nM and 330 ± 50 nM, respectively. Further, the “fold higher affinity for R190/K192 than for W190/N192” value in experiment [2] is ~3 fold.

Regarding `CC(C)C[C@H](NC(=O)[C@H](Cc1c[nH]c2ccccc12)NC(=O)[C@@H](NC(=O)[C@H](Cc1c[nH]c2ccccc12)NC(=O)[C@H](Cc1c[nH]c2ccccc12)NC(=O)[C@@H]1CCCN1C(=O)[C@@H](N)Cc1c[nH]c2ccccc12)C(C)C)C(=O)O` [WPWWVWL] (H-WPWWVWL-OH), the Ki in experiment [1], in experiment [2] and in experiment [3] was ~600 nM each time.

Regarding `CC(C)C[C@H](NC(=O)[C@H](Cc1c[nH]c2ccccc12)NC(=O)[C@@H](NC(=O)[C@H](Cc1c[nH]c2ccccc12)NC(=O)[C@@H](N)Cc1c[nH]c2ccccc12)C(C)C)C(=O)O` [WWVWL] (H-WWVWL-OH), the values for the Ki in experiment [1], in experiment [2] and in experiment [3] were ~600 nM, ~1400 nM and ~1000 nM, respectively. In experiment [4], this compound gave an EC50 of 1300 nM.
